Laboratory results from ChEMBL document CHEMBL1933040, “The novel agent ophiobolin O induces apoptosis and cell cycle arrest of MCF-7 cells through activation of MAPK signaling pathways” (Bioorg Med Chem Lett, 2012).
Active and inactive are the calls of the source. The rule behind the calls is not given here.

What was measured:
[1] = Activation of JNK phosphorylation in human MCF7 cells at 17.86 uM after 24 hrs by Western blot analysis; assay type: cell-based
MCF7 [2] = experiment: Induction of apoptosis in human MCF7 cells at 17.86 uM after 48 hrs using Annexin V-FITC and propidium iodide staining by flow cytometry (reference value: 3.71 +/- 0.63%); assay type: functional
MCF7 [3] = experiment: Induction of apoptosis in human MCF7 cells assessed as change in Bcl-2 protein level at 17.86 uM after 12 hrs by Western blot analysis in presence of JNK inhibitor SP600125; assay type: functional, cell-based
MCF7 [4] = experiment: Cell cycle arrest in human MCF7 cells assessed as accumulation at G0/G1 phase at 17.86 uM after 24 hrs by flow cytometry (reference value: 39.34 +/- 3.37%); assay type: functional
[5] = biological target: T1, Mitogen-activated protein kinase; ERK1/ERK2 (Homo sapiens) (UniProt P27361+P28482); experiment: Activation of ERK1/2 phosphorylation in human MCF7 cells at 17.86 uM after 48 hrs by Western blot analysis in presence of ERK inhibitor U0126; assay type: cell-based
T1 sequence (P27361 whole entry, looked up): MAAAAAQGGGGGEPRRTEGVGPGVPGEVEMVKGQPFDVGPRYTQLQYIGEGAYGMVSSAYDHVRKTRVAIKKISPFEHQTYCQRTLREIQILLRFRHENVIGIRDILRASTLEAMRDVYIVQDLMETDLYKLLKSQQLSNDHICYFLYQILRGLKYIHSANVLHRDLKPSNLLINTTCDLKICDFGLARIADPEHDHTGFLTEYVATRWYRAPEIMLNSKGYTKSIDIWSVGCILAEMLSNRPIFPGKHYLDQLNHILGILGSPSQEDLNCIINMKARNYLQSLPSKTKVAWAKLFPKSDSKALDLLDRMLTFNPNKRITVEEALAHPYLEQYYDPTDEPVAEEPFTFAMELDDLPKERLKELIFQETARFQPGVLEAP
T1 sequence (P28482 whole entry, looked up): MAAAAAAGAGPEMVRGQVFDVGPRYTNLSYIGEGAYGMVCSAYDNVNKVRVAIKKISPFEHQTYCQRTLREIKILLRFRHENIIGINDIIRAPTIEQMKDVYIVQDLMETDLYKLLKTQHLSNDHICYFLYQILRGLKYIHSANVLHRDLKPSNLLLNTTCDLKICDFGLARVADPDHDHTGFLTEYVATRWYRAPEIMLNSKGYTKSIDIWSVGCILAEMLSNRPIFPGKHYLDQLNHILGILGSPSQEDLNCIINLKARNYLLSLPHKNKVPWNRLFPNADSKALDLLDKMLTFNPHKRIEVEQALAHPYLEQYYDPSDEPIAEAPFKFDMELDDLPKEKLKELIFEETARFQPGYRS

MCF7 [6] = experiment: Induction of apoptosis in human MCF7 cells at 17.86 uM using Annexin V-FITC and propidium iodide staining by flow cytometry; assay type: functional, cell-based; settings: TDE = time-dependent effect
MCF7 [7] = experiment: Cell cycle arrest in human MCF7 cells assessed as accumulation at G0/G1 phase at 17.86 uM by flow cytometry; assay type: functional, cell-based; settings: TDE = time-dependent effect
MCF7 [8] = experiment: Induction of apoptosis in human MCF7 cells assessed as decrease in Bcl2 expression level at 17.86 uM after 12 to 48 hrs by Western blot analysis; assay type: functional, cell-based
MCF7 [9] = experiment: Effect on total JNK protein level in human MCF7 cells at 17.86 uM after 12 to 48 hrs by Western blot analysis; assay type: functional, cell-based
HUVEC = experiment: Cytotoxicity against human HUVEC cells after 48 hrs by MTT assay; assay type: cell-based
[10] = biological target: T2, MAP kinase p38 (Homo sapiens) (UniProt O15264+Q15759+Q16539+P53778); experiment: Activation of MAPK p38 phosphorylation in human MCF7 cells at 17.86 uM after 48 hrs by Western blot analysis in presence of p38 inhibitor SB203580; assay type: cell-based
MCF7 [11] = experiment: Induction of apoptosis in human MCF7 cells assessed as increase in Bim expression level at 17.86 uM after 12 to 48 hrs by Western blot analysis; assay type: functional, cell-based
[12] = biological target: T2, MAP kinase p38 (Homo sapiens); experiment: Activation of MAPK p38 phosphorylation in human MCF7 cells at 17.86 uM after 12 hrs by Western blot analysis; assay type: cell-based
MCF7 [13] = experiment: Induction of apoptosis in human MCF7 cells assessed as change in Bax/Bcl2 ratio at 17.86 uM by Western blot analysis; assay type: functional, cell-based; settings: TDE = time-dependent effect
[14] = biological target: T2, MAP kinase p38 (Homo sapiens); experiment: Activation of MAPK p38 phosphorylation in human MCF7 cells at 17.86 uM after 36 to 48 hrs by Western blot analysis; assay type: cell-based
[15] = biological target: T1, Mitogen-activated protein kinase; ERK1/ERK2 (Homo sapiens); experiment: Activation of ERK1/2 phosphorylation in human MCF7 cells at 17.86 uM after 24 hrs by Western blot analysis relative to control; assay type: cell-based
MCF7 [16] = experiment: Effect on total MAPK p38 protein level in human MCF7 cells at 17.86 uM after 12 to 48 hrs by Western blot analysis; assay type: functional, cell-based
MCF7 [17] = experiment: Cell cycle arrest in human MCF7 cells assessed as accumulation at G0/G1 phase at 17.86 uM after 12 hrs by flow cytometry (reference value: 39.34 +/- 3.37%); assay type: functional
MCF7 [18] = experiment: Induction of apoptosis in human MCF7 cells assessed as change in Bax expression level at 17.86 uM after 12 to 48 hrs by Western blot analysis; assay type: functional, cell-based
MCF7 [19] = experiment: Induction of apoptosis in human MCF7 cells at 17.86 uM after 48 hrs by using Annexin V-FITC and propidium iodide staining by flow cytometry in presence of JNK inhibitor SP600125; assay type: functional, cell-based
MCF7 [20] = experiment: Cytotoxicity against human MCF7 cells after 48 hrs by MTT assay; assay type: functional, cell-based
MCF7 [21] = experiment: Cell cycle arrest in human MCF7 cells assessed as accumulation at G0/G1 phase at 17.86 uM after 48 hrs by flow cytometry (reference value: 39.34 +/- 3.37%); assay type: functional
MCF7 [22] = experiment: Effect on total ERK 1/2 protein level in human MCF7 cells at 17.86 uM after 12 to 48 hrs by Western blot analysis; assay type: functional, cell-based
MCF7 [23] = experiment: Induction of apoptosis in human MCF7 cells assessed as increase of Bcl-2 phosphorylation at Ser70 at 17.86 uM after 12 hrs by Western blot analysis in presence of JNK inhibitor SP600125; assay type: functional, cell-based

- Activity [5]: inactive
- Activity [10]: inactive
- Activity [12]: Active
- Activity [14]: Active
- Activity [15]: Active
Structure (SMILES): CO[C@H]1O[C@@]2(OC)C[C@@](C)(O)[C@H]3C[C@@]4(C)CC[C@H]([C@@H](C)/C=C\C=C(C)C)[C@@H]4C/C=C/1[C@H]32 [OPHIOBOLIN O]
- Activity [1]: Active
- Activity (MCF7 [2]): 47.18%
- Activity (MCF7 [3]): Active
- Activity (MCF7 [4]): 60.1%
- Activity (MCF7 [6]): tde
- Activity (MCF7 [7]): tde
- Activity (MCF7 [8]): Active
- Activity (MCF7 [9]): Active
- Activity (HUVEC): Non-toxic
- Activity (MCF7 [11]): Active
- Activity (MCF7 [13]): tde
- Activity (MCF7 [16]): Active
- Activity (MCF7 [17]): 44.79%
- Activity (MCF7 [18]): inactive
- Activity (MCF7 [19]): inactive
- Activity (MCF7 [20]): Dose-dependent effect
- IC50 (MCF7 [20]; MCF7, 48 h): 17.9 µM
- Activity (MCF7 [21]): 78.54%
- Activity (MCF7 [22]): Active
- Activity (MCF7 [23]): Active
